Literature values, collected in US20090297596A1, “Nanoparticulate and Controlled Release Compositions Comprising a Platelet Aggregation Inhibitor” (ELAN PHARMA INTERNATIONAL LIMITED, priority 2005, published 2009).
Read-outs that look alike come from different tables or passages of the source.

Structure (SMILES): O=C1CCc2cc(OCCCCc3nnnn3C3CCCCC3)ccc2N1 [Cilostazol, 6-[4-(1-cyclohexyl-1H-tetrazol-5-yl)butoxy]-3,4-dihydro-2(1H)-quinolinone]
- Inhibition of phosphodiesterase III (phosphodiesterase III): inhibits
- Solubility (absolute ether): practically insoluble
- Solubility (benzyl alcohol): soluble
- Solubility (chloroform): freely soluble
- Solubility (dimethylformamide): soluble
- Solubility (ethanol): slightly soluble
- Solubility (methanol): slightly soluble
- Solubility (mixture of chloroform and methanol (1:1)): soluble
- Solubility (water): practically insoluble
